“And” between values parts separate entries of the source, which are not always exact repeats. Equal values may be shown once. Toxic doses and inconclusive results are not listed. Cut-off read from the data, not from the text of the source: active = T/C of 150% or more; inactive = T/C below 125%. Peptide text beside a SMILES is read from it.
System: L1210 leukemia ip in BDF1 mice, survival T/C
Experiment: NCI In Vivo Anticancer Drug Screen. Data for tumor model L1210 Leukemia (intraperitoneal) in B6D2F1 (BDF1) mice
Conditions: endpoint: mean survival time, higher = longer survival
How it was run: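 Read-out is survival time, reported as the treated-group measurement over the vehicle-control measurement.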

[1] = dose: 100.0 mg/kg/injection, schedule: Q01DX001 (ip), vehicle: carboxymethylcellulose (CMC)
[2] = dose: 200.0 mg/kg/injection, schedule: Q01DX001 (ip), vehicle: carboxymethylcellulose (CMC)
[3] = dose: 400.0 mg/kg/injection, schedule: Q01DX001 (ip), vehicle: carboxymethylcellulose (CMC)
[4] = dose: 100.0 mg/kg/injection, schedule: Q04DX002 (ip), vehicle: saline with Tween-80
[5] = dose: 200.0 mg/kg/injection, schedule: Q04DX002 (ip), vehicle: saline with Tween-80
[6] = dose: 400.0 mg/kg/injection, schedule: Q04DX002 (ip), vehicle: saline with Tween-80
[7] = dose: 100.0 mg/kg/injection, schedule: Q04DX003 (ip), vehicle: saline
[8] = dose: 200.0 mg/kg/injection, schedule: Q04DX003 (ip), vehicle: saline
[9] = dose: 400.0 mg/kg/injection, schedule: Q04DX003 (ip), vehicle: saline
[10] = dose: 100.0 mg/kg/injection, schedule: Q04DX003 (ip), vehicle: saline with Tween-80
[11] = dose: 200.0 mg/kg/injection, schedule: Q04DX003 (ip), vehicle: saline with Tween-80
[12] = dose: 100.0 mg/kg/injection, schedule: Q01DX009 (ip), vehicle: Klucel (hydroxypropylcellulose) (HPC)
[13] = dose: 100.0 mg/kg/injection, schedule: Q04DX003 (ip), vehicle: Klucel (hydroxypropylcellulose) (HPC)
[14] = dose: 200.0 mg/kg/injection, schedule: Q01DX009 (ip), vehicle: Klucel (hydroxypropylcellulose) (HPC)
[15] = dose: 200.0 mg/kg/injection, schedule: Q04DX003 (ip), vehicle: Klucel (hydroxypropylcellulose) (HPC)
[16] = dose: 400.0 mg/kg/injection, schedule: Q01DX009 (ip), vehicle: Klucel (hydroxypropylcellulose) (HPC)
[17] = dose: 400.0 mg/kg/injection, schedule: Q04DX003 (ip), vehicle: Klucel (hydroxypropylcellulose) (HPC)
[18] = dose: 100.0 mg/kg/injection, schedule: Q01DX001 (ip), vehicle: saline with Tween-80
[19] = dose: 200.0 mg/kg/injection, schedule: Q01DX001 (ip), vehicle: saline with Tween-80
[20] = dose: 400.0 mg/kg/injection, schedule: Q01DX001 (ip), vehicle: saline with Tween-80
[21] = dose: 400.0 mg/kg/injection, schedule: Q04DX003 (ip), vehicle: saline with Tween-80

Measured: T/C

CCCCCCNC1=C(c2ccccc2)C(=O)C(NCCCCCC)=C(c2ccccc2)C1=O
inactive: [1] 88 % of control | [2] 94 % of control | [3] 96 % of control

O=C(N/N=C\c1ccc(F)cc1)N/N=C/c1ccc(F)cc1
inactive: [4] 93 % of control | [5] 96 % of control | [6] 104 % of control

CCOP(=O)(CSCC)OCC
inactive: dose: 100.0 mg/kg/injection, schedule: Q01DX009 (ip), vehicle: saline 102 % of control | [7] 94 % of control | dose: 200.0 mg/kg/injection, schedule: Q01DX009 (ip), vehicle: saline 98 % of control | [8] 100 % of control | dose: 400.0 mg/kg/injection, schedule: Q01DX009 (ip), vehicle: saline 100 % of control | [9] 92 % of control

Cc1nc(N)[nH]c(=O)c1/C=C\C(=O)c1ccccc1
inactive: dose: 30.0 mg/kg/injection, schedule: Q01DX Z (ip), vehicle: carboxymethylcellulose (CMC) 96 % of control | dose: 60.0 mg/kg/injection, schedule: Q01DX Z (ip), vehicle: carboxymethylcellulose (CMC) 96 % of control | [1] 95 % of control | dose: 120.0 mg/kg/injection, schedule: Q01DX Z (ip), vehicle: carboxymethylcellulose (CMC) 87 % of control | [2] 89 % of control | dose: 240.0 mg/kg/injection, schedule: Q01DX Z (ip), vehicle: carboxymethylcellulose (CMC) 90 % of control | [3] 93 % of control

CC1(O)C=Cc2ccccc21 (stereo not given)
inactive: [10] 100 % of control | [11] 95 % of control

COc1cc(OC)c(C(=O)c2ccccc2N)c(OC)c1
inactive: [10] 89 % of control | [11] 87 % of control

C/C(=C\c1ccc(C)cc1)[N+](=O)[O-]
inactive: dose: 50.0 mg/kg/injection, schedule: Q01DX001 (ip), vehicle: other 108 % of control | dose: 100.0 mg/kg/injection, schedule: Q01DX001 (ip), vehicle: other 100 % of control | dose: 200.0 mg/kg/injection, schedule: Q01DX001 (ip), vehicle: other 92 % of control | dose: 400.0 mg/kg/injection, schedule: Q01DX001 (ip), vehicle: other 103 % of control

O=C(OCc1ccccc1)c1cc(OCc2ccccc2)ccc1OCc1ccccc1
inactive: [12] 89 % of control | [13] 93 % of control | [14] 101 % of control | [15] 95 % of control | [16] 107 % of control | [17] 98 % of control

O=[N+]([O-])c1ccc2c(c1)S(=O)c1cc([N+](=O)[O-])c(Br)cc1-2 (stereo not given) (tested in a mixture with another compound)
inactive: dose: 50.0 mg/kg/injection, schedule: Q04DX002 (ip), vehicle: saline with Tween-80 96 % of control | [4] 96 % of control | [5] 96 % of control

Cc1ccc(NC(=O)Oc2ccc([N+](=O)[O-])cc2)cc1S(=O)(=O)F
inactive: [18] 100 % of control and 101 % of control | dose: 100.0 mg/kg/injection, schedule: Q01DX009 (ip), vehicle: saline with Tween-80 98 % of control and 101 % of control | [4] 94 % of control and 99 % of control | [10] 98 % of control and 102 % of control | [19] 97 % of control and 100 % of control | dose: 200.0 mg/kg/injection, schedule: Q01DX009 (ip), vehicle: saline with Tween-80 103 % of control and 109 % of control | [5] 100 % of control and 90 % of control | [11] 94 % of control and 102 % of control | [20] 104 % of control and 107 % of control | [6] 96 % of control and 101 % of control | [21] 98 % of control

O=c1[nH]c(CCCOc2ccccc2)nc2ccccc12
inactive: dose: 50.0 mg/kg/injection, schedule: Q01DX001 (ip), vehicle: Klucel (hydroxypropylcellulose) (HPC) 93 % of control | dose: 100.0 mg/kg/injection, schedule: Q01DX001 (ip), vehicle: Klucel (hydroxypropylcellulose) (HPC) 104 % of control | dose: 200.0 mg/kg/injection, schedule: Q01DX001 (ip), vehicle: Klucel (hydroxypropylcellulose) (HPC) 104 % of control

Cc1nc(N)[nH]c(=O)c1N (tested in a mixture with another compound)
inactive: [18] 103 % of control | [19] 107 % of control | [20] 97 % of control

NC(=O)C(CCCN=C(N)N)NC(=O)CNC(=O)C(N)CO (stereo not drawn) (H-Ser-Gly-Arg-NH2; configuration not given here)
inactive: dose: 25.0 mg/kg/injection, schedule: Q04DX002 (ip), vehicle: Klucel (hydroxypropylcellulose) (HPC) 103 % of control | dose: 50.0 mg/kg/injection, schedule: Q04DX002 (ip), vehicle: Klucel (hydroxypropylcellulose) (HPC) 106 % of control | dose: 100.0 mg/kg/injection, schedule: Q04DX002 (ip), vehicle: Klucel (hydroxypropylcellulose) (HPC) 100 % of control

CCCCCCCCCCCCCCCCNS(=O)(=O)c1ccc(S(=O)(=O)F)cc1
inactive: [10] 94 % of control | [11] 94 % of control | [21] 89 % of control

CC(C)OC(=O)C#CC(=O)O
inactive: dose: 100.0 mg/kg/injection, schedule: Q01DX001 (ip), vehicle: saline 98 % of control

O=[N+]([O-])c1ccccc1C(=Nc1ccccc1)c1c(O)cc(O)cc1O
inactive: dose: 100.0 mg/kg/injection, schedule: Q01DX009 (ip), vehicle: acetone 94 % of control | [7] 96 % of control | dose: 200.0 mg/kg/injection, schedule: Q01DX009 (ip), vehicle: acetone 100 % of control | [8] 101 % of control | [9] 98 % of control

O=C1CCCC1CNCc1ccccc1 (stereo not given)
inactive: dose: 75.0 mg/kg/injection, schedule: Q01DX001 (ip), vehicle: saline 103 % of control | dose: 150.0 mg/kg/injection, schedule: Q01DX001 (ip), vehicle: saline 100 % of control

C[C@@H]1CC[C@@]2(NC1)O[C@H]1C[C@H]3[C@@H]4CC=C5C[C@@H](O)CC[C@]5(C)[C@H]4CC[C@]3(C)[C@H]1[C@@H]2C
inactive: dose: 5.0 mg/kg/injection, schedule: Q01DX Z (sc), vehicle: steriod suspending solution 91 % of control | dose: 10.0 mg/kg/injection, schedule: Q01DX Z (sc), vehicle: steriod suspending solution 100 % of control | dose: 20.0 mg/kg/injection, schedule: Q01DX Z (sc), vehicle: steriod suspending solution 96 % of control | dose: 40.0 mg/kg/injection, schedule: Q01DX Z (sc), vehicle: steriod suspending solution 98 % of control | dose: 50.0 mg/kg/injection, schedule: Q01DX009 (ip), vehicle: saline sonified 95 % of control | dose: 100.0 mg/kg/injection, schedule: Q01DX009 (ip), vehicle: saline sonified 94 % of control | [13] 94 % of control | dose: 200.0 mg/kg/injection, schedule: Q01DX009 (ip), vehicle: saline sonified 90 % of control | [15] 99 % of control

CCCCCCCCCCCCCCCCCCNC(=O)N(CC)c1ccccc1C
inactive: [12] 101 % of control | [13] 93 % of control | [14] 98 % of control | [15] 90 % of control | [16] 101 % of control | [17] 92 % of control

CCc1ccc2c(-c3ccccc3)ccc3c2c1C(=O)c1ccccc1-3
inactive: [4] 94 % of control | [5] 88 % of control | [6] 91 % of control

— PubChem BioAssay AID248 (DTP/NCI, 2004)
